From publication PMC4786417, “Ternatin and improved synthetic variants kill cancer cells by targeting the elongation factor-1A ternary complex” (eLife, 2015)

Columns and labels:
[1] = test system: 50-kDa protein (eEF1A) in HEK293T cell lysates; assay: Photo-affinity labeling of cell lysates with probe 5; format: binding; conditions: competitor 10 min before 5 (2 μM) 20 min, UV, TAMRA-azide click
Procedure: Lysates were prepared from HEK293T cells by washing a monolayer of cells once with ice-cold PBS and briefly freezing at –80°C. Lysis buffer (25 mM HEPES-KOH pH 7.3, 100 mM KOAc, 5 mM MgOAc2, 1 mM TCEP, 1 mM PMSF, Roche EDTA-free complete protease inhibitor) was added, and cells were detached with a cell scraper. Crude lysates were clarified by centrifugation (15 min at 14,000 rpm), protein was quantified by Bradford assay, and the protein concentration was brought to 1.5 mg/mL with lysis buffer. Lysates were processed for photo-labeling as described below. For samples treated with RNase A, RNase A (Roche) was added to lysates (10 mg/mL final concentration) and incubated for 20 min at RT.
Photo-labeling experiments were preformed essentially as described ([MacKinnon and Taunton, 2009]; [MacKinnon et al., 2007]). Reactions (100 μL) were treated with DMSO (1 μL) or competitor in DMSO as 100X stocks and incubated for 10 min at RT, then treated with photo-probe 5 and incubated for 20 min. Reactions were transferred to 96-well plates and irradiated with long-wave UV light (λmax = 355 nm, 1000 W, 90 s). […] Gels were scanned for TAMRA fluorescence (532 nm excitation laser, 568 nm emission measured with LPG filter) on a Typhoon FLA 9000 scanner (GE Life Sciences).

[2] = test system: translation initiation/elongation in HeLa cells; assay: Ribosome/polysome profiles; format: cell-based; conditions: 4 (5 μM) or cycloheximide (100 μg/mL) 15 min, then harringtonine 2 μg/mL 20 min
Procedure: HeLa cells grown to 80% confluence in 10-cm dishes were treated with DMSO or 4 (5 μM) for 20 min (Figure 2c, left panel), or were first treated with DMSO, 4 (5 μM), or cycloheximide (CHX, 100 μg/mL, Sigma, St. Louis, MO) for 15 min, followed by harringtonine (2 μg/mL, LKT Laboratories, St. Paul, MN) for 20 min. Following treatment, dishes were placed on ice, media aspirated, and cells were washed once with ice-cold PBS. Cells were scraped into 400 μL lysis buffer (20 mM Tris-HCl pH 7.5, 150 mM NaCl, 5 mM MgCl2, 1 mM DTT, 1% Triton X-100, 100 μg/mL CHX). Lysates were incubated for 10 min on ice, then passed through a 26-G needle 5 times. Samples were clarified by centrifugation at 14,000 rpm for 10 min at 4°C. Lysates were applied to 10–50% sucrose gradients (prepared in 20 mM Tris-HCl pH 7.5, 150 mM NaCl, 5 mM MgCl2, 1 mM DTT, 100 μg/mL CHX), followed by centrifugation at 35,000 rpm for 3 hr in a SW41 rotor at 4°C. Ribosome/polysome profiles were obtained by flowing the gradient top to bottom through an in-line spectrometer (254 nm, EM-1 Econo UV Monitor, BioRad, Hercules, CA).

[3] = test system: adipogenesis; conditions: ref Shimokawa et al., 2008b; cited from earlier work
Procedure: Ternatin (1, Figure 1a) is an N-methylated cyclic heptapeptide that inhibits adipogenesis at low nanomolar concentrations (EC50 20 nM) and becomes cytotoxic at ten-fold higher concentrations ([Shimokawa et al., 2008a]). […] Motivating the current study, ternatin's molecular target and mechanism of action were completely unknown. While searching for cyclic peptides that, like ternatin, incorporate a β-hydroxy leucine, we found a paten ...

[4] = test system: HCT116 cells; assay: HCT116 cell proliferation assay (alamarBlue, 72 hr); format: cell-based; conditions: read-out: effect on HCT116 cell proliferation (no effect up to)
Procedure: HCT116 cells (ATCC, Manassas, VA) were maintained in McCoy’s 5A media (Gibco, Grand Island, NY) supplemented with 10% fetal bovine serum (Axenia Biologix, Dixon, CA), 100 units/mL penicillin, and 100 ug/mL streptomycin (Gibco). Mutant HCT116 cells were obtained from Dominic Hoepfner ([Krastel et al., 2015]). HEK293T cells (ATCC) and HeLa cells (ATCC) were maintained in DMEM (Gibco) supplemented with 10% fetal bovine serum, 100 units/mL penicillin, and 100 μg/mL streptomycin. All other cell lines were obtained from the Cancer Cell Line Encyclopedia collection and were maintained as described ([Barretina et al., 2012]). All cell lines were tested for mycoplasma (Lonza, CH) before use and were SNP-typed to verify that their identity matched that of the originally procured sample. […]
Growing cells were briefly trypsinized and repeatedly pipetted to produce a homogenous cell suspension. […] Fluorescence intensity was measured hourly to determine the linear range for each assay (Ex 545 nm, Em 590 nm, Spectra Max M5, Molecular Devices, Sunnyvale, CA). Proliferation curves were generated by first normalizing fluorescence intensity in each well to the DMSO-treated plate average. Normalized fluorescence intensity was plotted in GraphPad Prism (GraphPad, La Jolla, CA), and IC50 values calculated from nonlinear regression curves. […]

[5] = test system: global protein synthesis in HCT116 cells; assay: 35S-methionine incorporation; format: cell-based; conditions: 5 hr compound then 35S-Met 1 hr, autoradiography / scintillation counting after TCA precipitation (mean ± SEM, n = 3)
Procedure: HCT116 cells at 80% confluence in 12-well plates were incubated with compounds for 5 hr at 37°C. The cell culture media was replaced with methionine- and cysteine-free DMEM with the appropriate amount of compound. ^35S-methionine (PerkinElmer EasyTag, 40 μCi/well) was added and cells were incubated for 1 hr. Subsequently, media was aspirated and cells were washed twice with ice-cold phosphate-buffered saline (PBS). For samples analyzed by SDS-PAGE/autoradiography (Figure 2a), cells were lysed in buffer (PBS, 0.5% Triton X-100, Roche complete protease inhibitor cocktail, Roche, Indianapolis, IN) and protein content was normalized by Bradford assay. Dried gels were exposed to a storage phosphor screen (Amersham Biosciences, UK) overnight and scanned with a Typhoon imager (GE Life Sciences, Pittsburgh, PA). Bulk incorporation measurements (Figure 2b) were made by treating cells with cold 10% trichloroacetic acid (TCA, 0.5 mL) for 10 min. Precipitated monolayers were washed with 10% TCA (2 × 0.5 mL) and solubilized in 0.2 N NaOH (0.5 mL). Aliquots (100 μL) were diluted into liquid scintillation fluid and radioactivity was quantified by scintillation counting.

Compound: CO[C@H]1\C=C/C=C\C=C/C[C@H](OC(=O)[C@@H](C)NC(=O)C2CCCCC2)[C@H](C)[C@@H](O)/C(C)=C\CCc2cc(O)cc(c2O)NC(=O)C1 [ansatrienin B]
- competition of labeling of the 50-kDa band by probe 5 [1]: abolished

Compound: C[C@@H]1C[C@@H]([C@H](O)CC2CC(=O)NC(=O)C2)C(=O)[C@@H](C)C1 [cycloheximide]
- harringtonine-induced polysome depletion [2]: completely blocked

Compound: didemnin B
- competition of labeling of the 50-kDa band by probe 5 [1]: abolished

Compound: ternatin-4-Ala [Compound 2]
- biological activity (adipogenesis assay) [3]: abolished biological activity
- IC50 [4]: > 10 µM
- effect on global protein synthesis (35S-methionine labeling) [5]: no effect
